Experimental data published in US9546196B2, “Compositions and methods of treatment of cancers” (The University of Toledo, priority 2009, dated 2017).
“Also recorded” adds a separate entry of the source.

Tests used:
[1] = test system: ACHN human kidney cancer cells; experiment: ACHN cell density with peptide; format: cell-based; details: even at 100 μM; 2 or 4 days; no endogenous sGCα1
Description: FIG. 17C: ACHN human kidney cancer cells were grown for 2 or 4 days in the presence of increasing concentration of Peptide A-8R [SEQ ID NO: 1] or vehicle and then cell density was measured.

C81 xenograft tumors = C81 xenograft tumors in mice, intratumoral injection; format: in vivo
Description: FIGS. 28A-C: Peptide A-8R [SEQ ID NO: 1] inhibits the growth of C81 prostate xenograft tumors. (A) C81 (hormone-independent LNCaP) xenograft tumors were grown in nude mice to a size of about 200 cubic mm and then treated every other day with five intratumoral injections of either Peptide A-8R [SEQ ID NO: 1] ([…] of animal) or vehicle (DMSO) for seven days, after which the tumors were left untreated and allowed to grow for an additional 3 weeks before the tumors were excised. Each point represents the average tumor size of three animals plus or minus the standard deviations. The arrow represents the last treatment of Peptide A-8R [SEQ ID NO: 1] or vehicle. There is a statistical significance (P<0.0004) of Peptide A activity, relative to vehicle, for each treatment day. […] Bar graphs represent averages of each set of three tumors plus standard deviations. Asterisks indicate statistical significance (P<0.02). (C) Image showing the strong anti-tumor effect of Peptide A-8R [SEQ ID NO: 1], as compared to vehicle control, in one animal.
This experiment was then repeated using hormone-refractory C81 cells. 2×10^6 C81 cells in 50 μL of growth medium was mixed with 50 μL Matrigel (BD Biosciences) and injected into both flanks of 4-6-week old SCID male mice. When tumor sizes reached 200 mm^3, 50 μL of Peptide A-8R (40 mg Peptide A-8R/kg of animal) [“A-8R” disclosed as SEQ ID NO: 1] or vehicle (DMSO) was directly injected into the tumors every other day. Injections were stopped after 5 times and tumors were measured every 3 days. Mice were euthanized after 3 weeks and tumors were excised. All procedures were approved by the University of Toledo, Division of Lab Animal Recourses (DLAR). Protein extracts were prepared by boiling the tumor tissue in 3×SDS buffer, and evaluated by SDS-PAGE gel. The procedure was carried out in strict accordance with the recommendations in the Guide for the Care and Use of Laboratory Animals of the National Institutes of Health. […] During the experiments, all animals were monitored daily for morbidity and all efforts were made to minimize suffering. […]

LNCaP xenograft tumors = LNCaP xenograft tumors in nude mice, intratumoral injection; format: in vivo
Description: FIG. 20: Peptide A-8R [SEQ ID NO: 1] inhibits the growth of LNCaP prostate xenograft tumors. LNCaP xenograft tumors were grown in nude mice to a size of 200-400 cubic mm and then treated with daily intratumoral injections of either Peptide A-8R [SEQ ID NO: 1] (80 mg/kg of animal) or Vehicle (DMSO) for seven days, after which the tumors were left untreated and allowed to grow for an additional 2-3 weeks. Each point represents the average tumor size of three animals plus/minus the standard deviations. Note that open squares or circles represent no treatment of either Peptide A-8R [SEQ ID NO: 1] or vehicle.
This was analyzed using LNCaP xenograft tumors established in nude mice and direct injection of Peptide A-8R [SEQ ID NO: 1] (FIG. 20).

LNCaP cells = format: cell-based; design: cell death: dose or concentration left out as unconfirmed
Description: FIG. 12B: LNCaP cells were grown without androgen for 2 or 4 days in the presence of increasing concentration of Peptide A-8R [SEQ ID NO: 1] (upper left), Peptide B-8R [SEQ ID NO: 2] (upper right), Peptide C-8R [SEQ ID NO: 3] (lower left), or Peptide D-8R [SEQ ID NO: 4] (lower right). The MTT reagent was used to measure cell density.
FIG. 13A: LNCaP cells were grown with (Right) or without (Left) 1 nM androgen ([…]) for 3 or 6 days in the presence of increasing concentration of Peptide A-8R [SEQ ID NO: 1] or vehicle (70% DMSO). The MTT reagent was used to measure cell density.
FIG. 13B: LNCaP cells were grown with (Right) or without (Left) 1 nM androgen (R1881) for 3 or 6 days in the presence of increasing concentration of Peptide C-8R [SEQ ID NO: 3] or vehicle and then cell density was measured.
FIG. 14A: LNCaP cells were grown with (Right) or without (Left) 1 nM R1881 for 3 or 6 days in the presence of increasing concentration of Peptide A or vehicle and then cell density was measured.
FIG. 14B: LNCaP cells were grown with (Right) or without (Left) 1 nM R1881 for 3 or 6 days in the presence of increasing concentration of Peptide A-8R [SEQ ID NO: 1] or vehicle and then cell density was measured.
FIG. 15A: LNCaP cells were grown for 1-8 hrs in the presence of 10 μM Peptide A-8R [SEQ ID NO: 1] or vehicle and then cell density was measured.
FIG. 19C: LNCaP cells were grown with for 12 or 48 hrs in the presence of increasing concentration of Peptide A-8R [SEQ ID NO: 1] (Left) or PeptideA-8R-Biotin [SEQ ID NO: 1] (Right) and then cell density was measured.
Each peptide contained 8 arginines at the C-terminus, a sequence which is known to mediate plasma membrane translocation and cellular internalization.
To measure how rapid the cytotoxic effect of Peptide A-8R [SEQ ID NO: 1] occurs, LNCaP cells were treated with 10 μM peptide and incubated for 1-8 hrs. […] Using the same conditions, C81 cells were used to study the peptide effect on hormone-refractory prostate cancer cells.

[2] = test system: PC-3 prostate cancer cells; experiment: PC-3 cell density with peptide; format: cell-based; details: even at 100 μM; 3 or 6 days; no endogenous sGCα1
Description: FIG. 17A: PC-3 prostate cancer cells were grown for 3 or 6 days in the presence of increasing concentration of Peptide A-8R [SEQ ID NO: 1] or vehicle and then cell density was measured.

[3] = test system: Cos monkey kidney cancer cells; experiment: Cos cell density with peptide; format: cell-based; details: even at 100 μM; 2 or 4 days; no endogenous sGCα1
Description: FIG. 17B: Cos monkey kidney cancer cells were grown for 2 or 4 days in the presence of increasing concentration of Peptide A-8R [SEQ ID NO: 1] or vehicle and then cell density was measured.

Ac-TFCKAFPFHIIRRRRRRRR-OH [Peptide A-8R]
effect on ACHN cells [1]: little to no effect
tumor growth during treatment (C81 xenograft tumors; 40 mg/kg intratumoral every other day, five injections): stopped tumor growth and actually caused some tumor regression
tumor size versus vehicle-treated tumor in the same mouse (C81 xenograft tumors; one mouse having two tumors): markedly smaller
tumor growth after peptide treatment was stopped (C81 xenograft tumors; three weeks after treatment was stopped): did not grow at all
tumor growth during treatment (LNCaP xenograft tumors; 80 mg/kg daily intratumoral, seven daily injections): strongly inhibited tumor growth and actually caused tumor regression
tumor growth after stopping peptide injection (LNCaP xenograft tumors; additional 2-3 weeks untreated, versus Vehicle): grew significantly more slowly
cell number, time course (LNCaP cells; LNCaP, 10 μM peptide, 1-8 hrs): steep decline in cell number with one hour
cell death (LNCaP cells; LNCaP, peptide treatment, by day 6): 100%
effect on LNCaP cell growth / cytotoxicity (in words) (LNCaP cells; increasing concentration of peptide, days, with or without 1 nM R1881): highly cytotoxic; also recorded: induced LNCaP cell death in both the absence and presence of androgens
effect on PC-3 cells [2]: little to no effect
effect on Cos cells [3]: little to no effect
